Measured values taken from patent US10562893B2, “Benzimidazoles derivatives as Tec kinases family inhibitors” (GB005, Inc., priority 2015, dated 2020).

Tests used:
[1] = test system: Jurkat human acute T cell leukemia cells; experiment: Jurkat IL-2 release assay; format: cell-based; settings: IL-2 release from Jurkat cells stimulated with anti-CD3 and anti-CD28, 48 hours, ELISA
Description: Inhibition of cellular ITK was assessed by measuring release of IL-2 following stimulation with anti-CD3 and anti-CD28 antibodies. Individual wells of 96 well tissue culture plates were coated with 50 μL of 10 μg/mL anti-CD3 (OKT3, eBiosciences) for 2 hours at 37° C. Jurkat human acute T cell leukemia cells (ATCC) were plated in 96-well plates at a final concentration of 9.2×10e5 cells/mL in complete media (RPMI, 10% FBS, 1.5 g/L sodium bicarbonate, 10 mM Hepes, 1 mM sodium pyruvate, 4.5 g/L glucose) and pre-treated with compound curves for 30 minutes at 37° C., 5% CO2. Pre-treated cells plus compounds were transferred to washed anti-CD3 coated plates. Soluble anti-CD28 (CD28.2 eBiosciences) was added to each well at a final concentration of 1 μg/mL. The cells were placed in a humidified 37° C. incubator with 5% CO2 for 48 hours and IL-2 release was measured using a commercial ELISA (BD Bioscience catalog #555190). Controls included unstimulated cells and vehicle alone. EC50 values (50% IL-2 release in the presence of compound as compared to vehicle treated controls) were calculated from dose response compound curves using GraphPad Prism Software.

RLK/TXK = RLK/TXK (Homo sapiens (Human), UniProt P42681); experiment: RLK/TXK kinase inhibition assay; format: biochemical; settings: micro-fluidic detection, 3 hours at 25° C.
Description: (§1) The in vitro kinase assays were performed at Nanosyn utilizing micro-fluidic detection technology. The test compounds were serially pre-diluted in DMSO and added, by the acoustic dispensing (Labcyte® 550), directly to 384well assay plates into 10 uL of a buffer with enzyme comprising: 100 mM HEPES, pH7.5, 5 mM MgCl2, 0.1% bovine serum albumin, 1 mM DTT, 0.01% Triton X-100 and the enzyme. Final DMSO concentration was maintained at 1% in all samples, including the controls. The reactions were initiated by addition of ATP (to the specified concentration) and the fluorescently labeled peptide substrate to a final concentration of 1 uM, and incubated for 3 hours at 25° C. Following incubation, the reactions were quenched by addition of 40 μL of termination buffer (100 mM HEPES, pH7.5, 0.01% Triton X-100, 50 mM EDTA). Terminated plates were analyzed using Caliper LabChip® 3000 microfluidic electrophoresis instrument (Caliper Life Sciences/Perkin Elmer). The enzymatic modification of the peptide substrate (phosphorylation) results in a change of net charge enabling electrophoretic separation of product from substrate. As substrate and product are separated by electrophoresis, two peaks of fluorescence are observed. Change in the relative fluorescence intensity of the substrate and product peaks was the parameter measured, reflecting enzyme activity. In the presence of inhibitor, the ratio between product and substrate is altered: signal of the product decreases, while the signal of the substrate increases. Activity in each test sample was determined as the product to sum ratio (PSR): P/(S+P), where P is the peak height of the product and S is the peak height of the […]. For each compound, enzyme activity was measured at 12 concentrations spaced by 3× dilution intervals. Negative control samples (0%-inhibition in the absence of inhibitor, DMSO only) and positive control samples (100%-inhibition, in the absence of enzyme or in the presence of control inhibitor) were assembled in replicates of four and were used to calculate %-inhibition values in the presence of compounds. Percent inhibition (Pinh) was determined using the following equation: Pinh=(PSR0%−PSRinh)/(PSR0%−PSR100%)*100, where PSRinh is the product sum ratio in the presence of inhibitor, PSR0% is the product sum ratio in the absence of inhibitor and PSR100% is the product sum ratio in 100%-inhibition control samples. To determine IC50 values, the inhibition curves (Pinh versus inhibitor concentration) were fitted by 4 parameter sigmoid dose-response model using XLfit software (IDBS).

ITK = ITK (Homo sapiens (Human), UniProt Q08881); experiment: ITK kinase inhibition assay; format: biochemical; settings: micro-fluidic detection, 3 hours at 25° C.
Description: as §1, with “384 well” for “384well”, “(PSR):P/(S+P),” for “(PSR): P/(S+P),”

Human PBMCs = experiment: CD3/CD28 mediated PBMC proliferation assay; format: cell-based; settings: proliferation of human PBMCs stimulated with anti-CD3 and anti-CD28, 72 hours, Cell Titer-Glo
Description: Inhibition of cellular ITK was assessed by measuring proliferation of PBMCs following stimulation with anti-CD3 and anti-CD28 antibodies. Individual wells of 96 well tissue culture plates were coated with 50 μL of 5 μg/mL anti-CD3 (OKT3, eBiosciences) for 2 hours at 37° C. Human PBMCs (Stemcell Technologies catalog #70025.3) were plated in 96-well plates at a final concentration of 9.2×10e5 cells/mL in complete media (RPMI, 10% heat inactivated FBS, 55 uM β-mercaptoethanol) and pre-treated with compound curves for 30 minutes at 37° C., 5% CO2. Pre-treated cells plus compounds were transferred to washed anti-CD3 coated plates. Soluble anti-CD28 (CD28.2 eBiosciences) was added to each well at a final concentration of 2 μg/mL. The cells were placed in a humidified 37° C. incubator with 5% CO2 for 72 hours and metabolic viability was measured by quantification of ATP levels with Cell Titer-Glo (Promega catalog # G9242). Controls included unstimulated cells and vehicle alone. EC50 values (50% proliferation in the presence of compound as compared to vehicle treated controls) were calculated from dose response compound curves using GraphPad Prism Software.

Sequence of RLK/TXK (P42681 whole entry): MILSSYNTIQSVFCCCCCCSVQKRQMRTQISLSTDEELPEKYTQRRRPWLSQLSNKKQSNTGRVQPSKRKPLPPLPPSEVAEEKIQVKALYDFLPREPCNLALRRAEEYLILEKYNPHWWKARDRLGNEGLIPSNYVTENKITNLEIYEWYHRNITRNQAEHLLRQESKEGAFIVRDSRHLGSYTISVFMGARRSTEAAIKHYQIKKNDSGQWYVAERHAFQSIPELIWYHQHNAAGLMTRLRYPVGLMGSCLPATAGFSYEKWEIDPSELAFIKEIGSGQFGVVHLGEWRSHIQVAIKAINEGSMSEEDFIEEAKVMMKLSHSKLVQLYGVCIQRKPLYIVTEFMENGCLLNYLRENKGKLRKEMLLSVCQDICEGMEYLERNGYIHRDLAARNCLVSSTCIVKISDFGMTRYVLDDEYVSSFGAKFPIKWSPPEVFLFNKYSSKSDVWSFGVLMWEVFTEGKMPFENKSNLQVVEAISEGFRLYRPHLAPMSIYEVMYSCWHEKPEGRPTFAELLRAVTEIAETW
Sequence of ITK (Q08881 whole entry): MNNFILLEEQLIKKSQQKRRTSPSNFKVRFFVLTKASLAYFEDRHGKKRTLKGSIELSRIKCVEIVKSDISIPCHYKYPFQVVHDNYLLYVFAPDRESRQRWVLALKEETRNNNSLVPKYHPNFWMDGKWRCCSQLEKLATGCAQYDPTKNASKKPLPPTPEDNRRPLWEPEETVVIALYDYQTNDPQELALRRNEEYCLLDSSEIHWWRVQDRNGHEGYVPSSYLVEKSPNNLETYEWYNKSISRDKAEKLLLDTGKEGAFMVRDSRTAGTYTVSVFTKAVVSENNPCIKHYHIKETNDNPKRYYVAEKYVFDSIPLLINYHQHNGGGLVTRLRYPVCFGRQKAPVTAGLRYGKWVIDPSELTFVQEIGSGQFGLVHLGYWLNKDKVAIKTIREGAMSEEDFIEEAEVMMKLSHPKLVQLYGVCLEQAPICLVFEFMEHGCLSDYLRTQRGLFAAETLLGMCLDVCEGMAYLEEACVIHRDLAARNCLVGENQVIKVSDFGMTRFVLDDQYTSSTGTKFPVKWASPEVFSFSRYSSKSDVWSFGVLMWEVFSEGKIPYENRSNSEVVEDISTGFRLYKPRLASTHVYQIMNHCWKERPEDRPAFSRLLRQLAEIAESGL

EC50 [1] [nM] | EC50 (RLK/TXK) [nM] | EC50 (ITK) [nM] | SMILES | EC50 (Human PBMCs) [nM]
10 to 100 | < 10 | < 10 | C=CC(=O)Nc1cccc(-n2c(NC(=O)c3ccncc3)nc3cc(CN[C@@H](C)C(C)(C)C)ccc32)c1 [Compound 16] | 10 to 100
< 10 | < 10 | < 10 | C=CC(=O)Nc1cccc(-n2c(NC(=O)c3ccns3)nc3cc(CN[C@@H](C)C(C)(C)C)ccc32)c1 [Compound 43] | < 10
10 to 100 | 10 to 100 | < 10 | C=CC(=O)N[C@H]1C[C@@H](n2c(NC(=O)c3ccc(C(F)F)s3)nc3cc(CN[C@@H](C)C(C)(C)C)ccc32)C1 [Compound 1] | 10 to 100
< 10 | 10 to 100 | < 10 | C=CC(=O)Nc1cccc(-n2c(NC(=O)c3cccnc3)nc3cc(CN[C@@H](C)C(C)(C)C)ccc32)c1 [Compound 19] | 10 to 100
10 to 100 | 10 to 100 | < 10 | C=CC(=O)N[C@H]1CC[C@@H](n2c(NC(=O)c3ccc(C(F)F)s3)nc3cc(CN[C@@H](C)C(C)(C)C)ccc32)C1 [Compound 62] | > 100
> 100 | > 100 | > 100 | C=CC(=O)Nc1cccc(-n2c(NC(=O)c3ccccn3)nc3cc(CN[C@@H](C)C(C)(C)C)ccc32)c1 [Compound 27] | > 100
 | < 10 | < 10 | C=CC(=O)N[C@H]1CCC[C@@H](n2c(NC(=O)c3ccc(C(F)F)s3)nc3cc(CN[C@@H](C)C(C)(C)C)ccc32)C1 [Compound 68] | < 10
> 100 | < 10 | < 10 | C=CC(=O)Nc1cccc(-n2c(NC(=O)c3ccc(C#N)cc3)nc3cc(CN[C@@H](C)C(C)(C)C)ccc32)c1 [Compound 11] | 10 to 100
< 10 | 10 to 100 | < 10 | C=CC(=O)N[C@@H]1CCC[C@H](n2c(NC(=O)c3ccc(C(F)F)s3)nc3cc(CN[C@@H](C)C(C)(C)C)ccc32)C1 [Compound 81] | 10 to 100
< 10 | 10 to 100 | 10 to 100 | C=CC(=O)Nc1cccc(-n2c(NC(=O)c3cnco3)nc3cc(CN[C@@H](C)C(C)(C)C)ccc32)c1 [Compound 42] | 10 to 100
10 to 100 | < 10 | 10 to 100 | C=CC(=O)Nc1cccc(-n2c(NC(=O)c3cncs3)nc3cc(CN[C@@H](C)C(C)(C)C)ccc32)c1 [Compound 17] | 10 to 100
10 to 100 | 10 to 100 | 10 to 100 | C=CC(=O)N[C@H]1CC[C@@H](n2c(NC(=O)c3ccc(C(F)F)s3)nc3cc(CN[C@@H](C)C(C)(C)C)ccc32)CC1 [Compound 3] | > 100
< 10 | < 10 | < 10 | C=CC(=O)Nc1cccc(-n2c(NC(=O)c3ccc(C(F)F)s3)nc3cc(N(C)C(=O)[C@H](C)N4CCOCC4)ccc32)c1 [Compound 77] | 10 to 100
> 100 | 10 to 100 | > 100 | C=CC(=O)Nc1cccc(-n2c(NC(=O)c3nccs3)nc3cc(CN[C@@H](C)C(C)(C)C)ccc32)c1 [Compound 12] | > 100
< 10 | < 10 | < 10 | C=CC(=O)Nc1cccc(-n2c(NC(=O)c3ccc(C(F)F)s3)nc3cc(CN[C@H]4CC[C@H](O)CC4)ccc32)c1 [Compound 31] | < 10
< 10 | < 10 | < 10 | C=CC(=O)Nc1cccc(-n2c(NC(=O)c3ccc(C(F)F)s3)nc3cc(CN4CCOCC4)ccc32)c1 [Compound 50] | < 10
< 10 | < 10 | < 10 | C=CC(=O)N[C@@H]1CC[C@H](n2c(NC(=O)c3ccc(C(F)F)s3)nc3cc(CN[C@@H](C)C(C)(C)C)ccc32)C1 [Compound 18] | 10 to 100
